This assay addresses EGFR (D770-N771 ins NPG T790M) kinase (Homo sapiens (Human), UniProt P00533, INS770NPG/T790M). The assay can be described thus: In-vitro enzyme experiment 1 (HTRF kinase assay), EGFR D770-N771 ins NPG T790M. Format: biochemical. On the procedure:
The specific experiment was as follows: • 1. Preparation of 1× concentration kinase buffer • 1 volume of 5 times concentration of an enzyme buffer diluted with 4 volumes of distilled water; 5 mM magnesium chloride; 1 mM DTT; and 1 mM MnCl2. • 2. Test method of activity of compound • a) a compound diluent was transferred to each well of an assay plate (784075, Greiner) using Echo 550; • b) the assay plate was sealed and centrifuged at 1,000 g for 1 min; • c) 2×EGFR (D770-N771 ins NPG T790M) was prepared in a 1× kinase buffer; • d) 5 μl of the 2×EGFR (D770-N771 ins NPG T790M) was added to a 384-well assay plate (784075, Greiner); • e) the assay plate was centrifuged at 1,000 g for 30 s and incubated at room temperature for 10 min; • f) 2× TK-substrate-biotin (2 μM) and ATP were added to the 1× kinase buffer and mixed; • g) the reaction was started after adding 5 μl of the TK-substrate-biotin (2 μM) and ATP mixture; • h) the assay plate was centrifuged at 1,000 g for 30 s; and the assay plate was sealed and incubated at room temperature for 40 min; • i) 4× Sa-XL 665 was prepared in an HTRF detection buffer; • j) 5 μl of the Sa-XL 665 and 5 μl of a TK-antibody-cryptate were added to each well of the assay plate; • k) the assay plate was centrifuged at 1,000 g for 30 s and incubated at room temperature for 1 h; and • l) fluorescence signals at 615 nm (cryptate) and 665 nm (XL665) were read on an Envision 2104 reader. • 3. Data analysis • 3.1 Calculation of ratio (665/615 nm) of each well • 3.2 Calculation of inhibition rate
[formula] • 3.3 Calculation of IC50 value of compound and drawing dose-effect curve of compound • IC50 values were calculated using GraphPad 6.0 by applying a non-linear regression curve (dose-effect relationship-variable slope) of the logarithm of the compound concentration versus the inhibition rate.
Y=lowest value+(highest value−lowest value)/(1+10^((Log IC50−X)×slope)) • X: logarithm of inhibitor concentration; and Y: inhibition rate. • 3.4 Double test report • 3.4.1 After one tester completed a report, another tester again checked the report to ensure that data analysis was correct. • 3.4.2 The data was exported from the software and manually analyzed. • 3.4.2.1 The rate was converted into the inhibition rate. All the IC50 values were first calculated with the inhibition rate using Prism GraphPad 6.0. • 3.4.2.2 Then the IC50 value was recalculated using the ratio to check the accuracy of the analysis. • 3.4.3 The number of all the compounds was ensured to be correct.
On the technique in general: Time-resolved FRET reads energy transfer from a long-lived donor to a nearby acceptor.

As usually defined, the pIC50 is −log10 of the IC50, conventionally taken in molar units. Lower therefore signals a large IC50.

pIC50: −log10 of the molar value.

Chain of EGFR (D770-N771 ins NPG T790M) kinase (P00533 other isoform, or with tags, fused parts or gaps T790M/del 1-668/ins NPG behind 770 limits assumed): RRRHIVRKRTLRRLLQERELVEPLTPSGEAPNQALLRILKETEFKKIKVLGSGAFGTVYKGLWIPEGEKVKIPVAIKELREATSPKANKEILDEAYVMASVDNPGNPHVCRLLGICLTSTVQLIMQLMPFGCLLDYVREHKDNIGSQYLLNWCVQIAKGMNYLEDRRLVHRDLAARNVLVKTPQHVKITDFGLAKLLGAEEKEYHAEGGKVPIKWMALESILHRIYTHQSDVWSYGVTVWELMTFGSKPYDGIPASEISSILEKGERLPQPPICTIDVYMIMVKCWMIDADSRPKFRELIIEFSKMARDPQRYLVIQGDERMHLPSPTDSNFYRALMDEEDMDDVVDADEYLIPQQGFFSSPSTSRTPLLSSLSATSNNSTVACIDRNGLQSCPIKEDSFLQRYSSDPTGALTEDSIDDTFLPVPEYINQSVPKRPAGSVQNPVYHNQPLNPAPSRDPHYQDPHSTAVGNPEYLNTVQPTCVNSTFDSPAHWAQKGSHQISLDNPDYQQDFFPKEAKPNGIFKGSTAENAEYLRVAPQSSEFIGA

Molecule `CN1CCN(c2ccc(Nc3nc(N[C@H]4CC[C@@H](CO)CC4)c4c(C(=O)c5ccc(F)cc5)c[nH]c4n3)cc2)CC1` [Example 60] gave a pIC50 of 8.06.

Values taken from patent US20250122202A1, “EGFR INHIBITOR, PREPARATION METHOD THEREFOR AND USE THEREOF” (SHANDONG NEW TIME PHARMACEUTICAL CO., LTD., priority 2021, published 2025).
